As usually defined, the bioavailability is dose-corrected exposure relative to a reference, in per cent. What is called clearance is the rate of elimination divided by the concentration. For orientation: EC50 means the concentration at which the effect is half-maximal. The term half-life denotes the time in which the quantity being followed falls by half.

Consider one compound from ChEMBL document CHEMBL1141367, “Substituted 2-[(4-aminomethyl)phenoxy]-2-methylpropionic acid PPARalpha agonists. 1. Discovery of a novel series of potent HDLc raising agents” (J Med Chem, 2007).

Series [1] is described as follows: Bioavailability in Beagle dog at 3 mg/kg, po. The format is ADME, organism-based, Canis lupus familiaris. The settings on record: in vivo.
A short description of series [2]: Plasma clearance in Beagle dog at 2 mg/kg, iv. The format is ADME, organism-based, Canis lupus familiaris. Also on record: dose 2 mg/kg, route intravenous.
The test system of the next series is Canis familiaris. The experiment in a line: Plasma concentration in Beagle dog at 3 mg/kg, po. Also on record: dose 3 mg/kg, route oral. The note with it: in vivo. Format: ADME, organism-based, Canis lupus familiaris.
The nature of series [3]: Bioavailability in Wistar rat at 3 mg/kg, po. The format is ADME, organism-based. The note with it: in vivo.
The test system of series [4] is Mus musculus. The series can be described thus: Increase in HDL cholesterol level in human Apo-A-I transgenic C57BL/6 mouse at 0.5 mg/kg, po. The format is functional.
Series [5] concerns Mus musculus. The experiment in a line: Decrease in plasma TG level in human Apo-A-I transgenic C57BL/6 mouse at 1 mg/kg, po. The format is functional. Also on record: scale not given: the % may be the effect or the level left.
Series [6] relates to Mus musculus. The series can be described thus: Decrease in plasma TG level in human Apo-A-I transgenic C57BL/6 mouse at 0.5 mg/kg, po. The format is functional. Also on record: scale not given: the % may be the effect or the level left.
For series [7], the system named is Mus musculus. The experiment in a line: Decrease in LDL cholesterol level in human Apo-A-I transgenic C57BL/6 mouse at 5 mg/kg, po. Format: functional. Also on record: scale not given: the % may be the effect or the level left.
Series [8] deals with T1, Peroxisome proliferator-activated receptor alpha (Mus musculus, UniProt P23204).
T1 sequence (P23204 whole entry): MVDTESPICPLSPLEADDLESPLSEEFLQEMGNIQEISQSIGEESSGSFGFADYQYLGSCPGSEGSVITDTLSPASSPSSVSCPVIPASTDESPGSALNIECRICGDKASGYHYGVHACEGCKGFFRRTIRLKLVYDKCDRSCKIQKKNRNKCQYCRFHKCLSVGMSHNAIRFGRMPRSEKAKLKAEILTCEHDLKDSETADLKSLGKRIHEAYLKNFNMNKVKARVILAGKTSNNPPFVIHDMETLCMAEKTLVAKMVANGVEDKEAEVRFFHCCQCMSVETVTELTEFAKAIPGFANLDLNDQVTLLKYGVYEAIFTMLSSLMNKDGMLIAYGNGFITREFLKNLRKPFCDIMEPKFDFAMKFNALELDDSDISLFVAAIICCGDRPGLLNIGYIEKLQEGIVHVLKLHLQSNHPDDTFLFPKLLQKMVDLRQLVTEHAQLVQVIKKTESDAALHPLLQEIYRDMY
Description: Agonist potency at mouse PPARalpha

The test system of series [9] is Mus musculus. The series can be described thus: Decrease in VLDL cholesterol in human Apo-A-I transgenic C57BL/6 mouse at 0.5 mg/kg, po. The format is functional. Further details: scale not given: the % may be the effect or the level left.
For series [10], the system named is Mus musculus. The experiment in a line: Decrease in plasma TG level in human Apo-A-I transgenic C57BL/6 mouse at 5 mg/kg, po. Format: functional. Further details: scale not given: the % may be the effect or the level left.
In series [11] the target is T2, Peroxisome proliferator-activated receptor delta (Homo sapiens, UniProt Q03181).
T2 sequence (Q03181 whole entry): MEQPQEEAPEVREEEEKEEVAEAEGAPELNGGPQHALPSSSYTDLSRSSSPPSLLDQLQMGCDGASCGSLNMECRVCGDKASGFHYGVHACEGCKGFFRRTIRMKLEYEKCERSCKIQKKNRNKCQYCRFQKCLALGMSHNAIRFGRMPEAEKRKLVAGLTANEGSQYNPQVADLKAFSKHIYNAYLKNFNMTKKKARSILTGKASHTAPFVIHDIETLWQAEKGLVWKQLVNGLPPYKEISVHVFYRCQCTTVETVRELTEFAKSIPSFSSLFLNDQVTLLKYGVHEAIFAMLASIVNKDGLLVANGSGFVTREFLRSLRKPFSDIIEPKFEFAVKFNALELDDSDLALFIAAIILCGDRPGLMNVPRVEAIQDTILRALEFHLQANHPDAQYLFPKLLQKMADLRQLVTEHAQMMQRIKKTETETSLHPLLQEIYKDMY
Description: Agonist potency at PPARdelta in CV1 cells by cell based transient transfection assay

Series [12] deals with Mus musculus. The experiment in a line: Decrease in LDL cholesterol level in human Apo-A-I transgenic C57BL/6 mouse at 0.5 mg/kg, po. Format: functional. Also on record: scale not given: the % may be the effect or the level left.
Series [13] is described as follows: Volume of distribution in Wistar rat at 2.7 mg/kg, iv. The format is ADME, organism-based. Further details: dose 2.7 mg/kg, route intravenous. The note with it: in vivo, read-out: Vdss.
In series [14] the target is T3, Peroxisome proliferator-activated receptor gamma (Homo sapiens, UniProt P37231).
T3 sequence (P37231 whole entry): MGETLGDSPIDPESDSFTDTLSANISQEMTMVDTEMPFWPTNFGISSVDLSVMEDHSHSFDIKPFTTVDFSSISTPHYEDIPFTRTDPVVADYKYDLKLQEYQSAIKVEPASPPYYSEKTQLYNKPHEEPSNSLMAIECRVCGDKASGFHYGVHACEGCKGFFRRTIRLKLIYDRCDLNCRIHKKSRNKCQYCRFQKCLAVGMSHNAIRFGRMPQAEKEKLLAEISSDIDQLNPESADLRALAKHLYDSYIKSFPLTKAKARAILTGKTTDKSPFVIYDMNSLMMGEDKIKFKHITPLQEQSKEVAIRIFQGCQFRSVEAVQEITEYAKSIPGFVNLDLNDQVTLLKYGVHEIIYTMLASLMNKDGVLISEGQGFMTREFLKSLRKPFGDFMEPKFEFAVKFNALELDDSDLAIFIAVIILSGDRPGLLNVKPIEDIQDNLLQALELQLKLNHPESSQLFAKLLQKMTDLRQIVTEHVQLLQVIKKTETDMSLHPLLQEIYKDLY
The format is functional, cell-based, CV-1.
Description: Agonist potency at PPARgamma in CV1 cells by cell based transient transfection assay

The nature of series [15]: Plasma clearance in Wistar rat at 2.7 mg/kg, iv. Also on record: dose 2.7 mg/kg, route intravenous. Format: ADME, organism-based.
A short description of series [16]: Volume of distribution in Beagle dog at 2 mg/kg, iv. The format is ADME, organism-based, Canis lupus familiaris. Also on record: dose 2 mg/kg, route intravenous. The note with it: in vivo, read-out: Vdss.
The test system of series [17] is Mus musculus. The experiment in a line: Decrease in VLDL cholesterol in human Apo-A-I transgenic C57BL/6 mouse at 1 mg/kg, po. Format: functional. Further details: scale not given: the % may be the effect or the level left.
Series [18] has as its system Mus musculus. The series can be described thus: Decrease in LDL cholesterol level in human Apo-A-I transgenic C57BL/6 mouse at 1 mg/kg, po. Format: functional. Also on record: scale not given: the % may be the effect or the level left.
Series [19] can be described thus: Half life in Wistar rat plasma at 2.7 mg/kg, iv. The format is ADME, organism-based. Further details: dose 2.7 mg/kg, route intravenous.
Series [20] can be described thus: Plasma concentration in Wistar rat at 3 mg/kg, po after 1.5 hrs. The format is ADME, organism-based. Further details: dose 3 mg/kg, route oral.
Series [21] concerns Mus musculus. The experiment in a line: Increase in HDL cholesterol level in human Apo-A-I transgenic C57BL/6 mouse at 1 mg/kg, po. The format is functional.
Series [22] is described as follows: Half life in Beagle dog plasma at 2 mg/kg, iv. The format is ADME, organism-based, Canis lupus familiaris. Further details: dose 2 mg/kg, route intravenous.

Regarding `Cc1nc(-c2ccc(C(F)(F)F)cc2)sc1C(=O)NCc1ccc(OC(C)(C)C(=O)O)cc1` [GW590735], the bioavailability worked out at 85% in series [1] and 47% in [3]. For the same compound, the clearance in series [2] turned out to be 0.78 L/h/kg; in series [15], 0.3 L/h/kg. The same compound came in with a Cp in the series on Canis familiaris of 1.449 µg/mL. Further, the Activity with Mus musculus [4] was 43%; with Mus musculus [5], 48%; with Mus musculus [6], 37%; with Mus musculus [7] it was 69%; in the series with Mus musculus [9], 48%; in the series on Mus musculus [10] it was 65%. In addition, the Activity amounted to 61% with Mus musculus [12], 63% in the series on Mus musculus [17], 65% with Mus musculus [18] and 51% in the series on Mus musculus [21]. In addition, the EC50 in [8] is 0.015 µM; in series [11], 2.83 µM; in [14] it was greater than 10 µM. The Vd was determined as 1 L/kg in series [13] and 2.8 L/kg in series [16]. Besides, the half-life was 2.4 h in series [19] and 2.6 h in [22]. This compound also gave a concentration at 1.5 h in [20] of 1.46 µg/mL.
